Measured values published in ChEMBL document CHEMBL3603734, “Design and biological evaluation of novel quinolone-based metronidazole derivatives as potent Cu(2+) mediated DNA-targeting antibacterial agents” (Bioorg Med Chem Lett, 2015).
≈ marks a conversion by molar mass, not a printed value. Calls of active or inactive are those of the source. No cut-off for these calls is given here.

How the values were obtained:
[1] = Cytotoxicity against MEF assessed as inhibition of cell proliferation at 3 x 10^-1 umol/L after 72 hrs by MTT assay relative to control; type: cell-based; details: mouse, MEF cells
[2] = Cytotoxicity against mouse C2C12 cells assessed as inhibition of cell proliferation at 3 umol/L after 72 hrs by MTT assay relative to control; type: cell-based
[3] = Cytotoxicity against mouse C2C12 cells assessed as inhibition of cell proliferation at 10 umol/L after 72 hrs by MTT assay relative to control; type: cell-based
[4] = Cytotoxicity against mouse C2C12 cells assessed as inhibition of cell proliferation at 3 x 10^-1 umol/L after 72 hrs by MTT assay relative to control; type: cell-based
[5] = Ionization constant, pKa of the compound by UV spectroscopic analysis; type: physicochemical
[6] = Cytotoxicity against HEK293 cells assessed as inhibition of cell proliferation at 3 x 10^-1 umol/L after 72 hrs by MTT assay relative to control; type: cell-based; details: human
Pichia norvegensis = assay: Antifungal activity against Candida mycoderma ATCC 9888 after 24 hrs by microbroth dilution method; type: functional; details: ATCC 9888, 24 h
[7] = Cytotoxicity against MEF assessed as inhibition of cell proliferation at 10^-1 umol/L after 72 hrs by MTT assay relative to control; type: cell-based; details: mouse, MEF cells
[8] = Cytotoxicity against MEF assessed as inhibition of cell proliferation at 3 x 10^2 umol/L after 72 hrs by MTT assay relative to control; type: cell-based; details: mouse, MEF cells
Cyberlindnera jadinii = assay: Antifungal activity against Candida utilis ATCC 9950 after 24 hrs by microbroth dilution method; type: functional; details: Williopsis jadinii, ATCC 9950, 24 h
[9] = Cytotoxicity against MEF assessed as inhibition of cell proliferation at 10 umol/L after 72 hrs by MTT assay relative to control; type: cell-based; details: mouse, MEF cells
[10] = Cytotoxicity against MEF assessed as inhibition of cell proliferation at 3 x 10^-2 umol/L after 72 hrs by MTT assay relative to control; type: cell-based; details: mouse, MEF cells
Pseudomonas aeruginosa [11] = assay: Binding affinity to Pseudomonas aeruginosa DNA assessed as Stem-Volmer quenching constant by fluorescence spectroscopic analysis in presence of KI
MEF = assay: Cytotoxicity against MEF assessed as inhibition of cell proliferation after 72 hrs by MTT assay; type: cell-based; details: Mus musculus
Micrococcus luteus = assay: Antibacterial activity against Micrococcus luteus ATCC 4698 after 24 hrs by microbroth dilution method; type: functional; details: NCTC 2665, 24 h
[12] = Cytotoxicity against mouse C2C12 cells assessed as inhibition of cell proliferation at 10^2 umol/L after 72 hrs by MTT assay relative to control; type: cell-based
[13] = Cytotoxicity against HEK293 cells assessed as inhibition of cell proliferation at 10^-2 umol/L after 72 hrs by MTT assay relative to control; type: cell-based; details: human
Staphylococcus aureus [14] = assay: Antibacterial activity against methicillin-resistant Staphylococcus aureus N315 after 24 hrs by microbroth dilution method; type: functional; details: N315, 24 h
Salmonella enterica = assay: Antibacterial activity against Salmonella enterica ATCC 14028 after 24 hrs by microbroth dilution method; type: functional; details: ATCC 14028, 24 h
Bacillus spizizenii = assay: Antibacterial activity against Bacillus subtilis ATCC 6633 after 24 hrs by microbroth dilution method; type: functional; details: ATCC 6633, 24 h
[15] = Cytotoxicity against MEF assessed as inhibition of cell proliferation at 30 umol/L after 72 hrs by MTT assay relative to control; type: cell-based; details: mouse, MEF cells
Staphylococcus aureus [16] = assay: Antibacterial activity against Staphylococcus aureus ATCC 25923 after 24 hrs by microbroth dilution method; type: functional; details: ATCC 25923, 24 h
[17] = Cytotoxicity against mouse C2C12 cells assessed as inhibition of cell proliferation at 3 x 10^-2 umol/L after 72 hrs by MTT assay relative to control; type: cell-based
[18] = Cytotoxicity against MEF assessed as inhibition of cell proliferation at 3 umol/L after 72 hrs by MTT assay relative to control; type: cell-based; details: mouse, MEF cells
Bacillus = assay: Antibacterial activity against Bacillus proteus ATCC 13315 after 24 hrs by microbroth dilution method; type: functional; details: ATCC 13315, 24 h
[19] = Cytotoxicity against HEK293 cells assessed as inhibition of cell proliferation at 30 umol/L after 72 hrs by MTT assay relative to control; type: cell-based; details: human
[20] = Cytotoxicity against HEK293 cells assessed as inhibition of cell proliferation at 10 umol/L after 72 hrs by MTT assay relative to control; type: cell-based; details: human
[21] = Cytotoxicity against HEK293 cells assessed as inhibition of cell proliferation at 10^2 umol/L after 72 hrs by MTT assay relative to control; type: cell-based; details: human
[22] = Cytotoxicity against mouse C2C12 cells assessed as inhibition of cell proliferation at 30 umol/L after 72 hrs by MTT assay relative to control; type: cell-based
Saccharomyces cerevisiae = assay: Antifungal activity against Saccharomyces cerevisiae ATCC 9763 after 24 hrs by microbroth dilution method; type: functional; details: ATCC 9763, 24 h
[23] = Cytotoxicity against HEK293 cells assessed as inhibition of cell proliferation at 3 x 10^-2 umol/L after 72 hrs by MTT assay relative to control; type: cell-based; details: human
[24] = Cytotoxicity against mouse C2C12 cells assessed as inhibition of cell proliferation at 1 umol/L after 72 hrs by MTT assay relative to control; type: cell-based
[25] = Cytotoxicity against mouse C2C12 cells assessed as inhibition of cell proliferation at 10^-2 umol/L after 72 hrs by MTT assay relative to control; type: cell-based
[26] = Cytotoxicity against MEF assessed as inhibition of cell proliferation at 1 umol/L after 72 hrs by MTT assay relative to control; type: cell-based; details: mouse, MEF cells
Pseudomonas aeruginosa [27] = assay: Binding affinity to Pseudomonas aeruginosa DNA assessed as 1:1 compound-DNA complex formation at 6 x 10^-6 mol/L by fluorescence spectroscopic analysis in presence of Cu2+
Pseudomonas aeruginosa [28] = assay: Binding affinity to Pseudomonas aeruginosa DNA up to 1.4 x 10^-5 mol/L by UV-vis absorption spectra analysis
Pseudomonas aeruginosa [29] = assay: Antibacterial activity against Pseudomonas aeruginosa ATCC 27853 after 24 hrs by microbroth dilution method; type: functional; details: ATCC 27853, 24 h
[30] = Cytotoxicity against HEK293 cells assessed as inhibition of cell proliferation at 10^-1 umol/L after 72 hrs by MTT assay relative to control; type: cell-based; details: human
Candida albicans = assay: Antifungal activity against Candida albicans ATCC 10231 after 24 hrs by microbroth dilution method; type: functional; details: ATCC 10231, 24 h
[31] = Cytotoxicity against mouse C2C12 cells assessed as inhibition of cell proliferation at 3 x 10^2 umol/L after 72 hrs by MTT assay relative to control; type: cell-based
[32] = Cytotoxicity against HEK293 cells assessed as inhibition of cell proliferation at 3 x 10^2 umol/L after 72 hrs by MTT assay relative to control; type: cell-based; details: human
[33] = Cytotoxicity against MEF assessed as inhibition of cell proliferation at 10^-2 umol/L after 72 hrs by MTT assay relative to control; type: cell-based; details: mouse, MEF cells
HEK293 = assay: Cytotoxicity against HEK293 cells assessed as inhibition of cell proliferation after 72 hrs by MTT assay; type: cell-based; details: Homo sapiens, HEK293, 72 h
C2C12 = assay: Cytotoxicity against mouse C2C12 cells assessed as inhibition of cell proliferation after 72 hrs by MTT assay; type: cell-based; details: C2C12, 72 h
Escherichia coli = assay: Antibacterial activity against Escherichia coli JM109 after 24 hrs by microbroth dilution method; type: functional; details: JM109, 24 h
Aspergillus flavus = assay: Antifungal activity against Aspergillus flavus ATCC 204304 after 24 hrs by microbroth dilution method; type: functional; details: ATCC 204304, 24 h
[34] = Cytotoxicity against HEK293 cells assessed as inhibition of cell proliferation at 3 umol/L after 72 hrs by MTT assay relative to control; type: cell-based; details: human
Pseudomonas aeruginosa [35] = assay: Binding affinity to Cu2+ assessed as 2:1 compound-metal complex formation at 6 x 10^-6 mol/L by fluorescence spectroscopic analysis
[36] = Cytotoxicity against mouse C2C12 cells assessed as inhibition of cell proliferation at 10^-1 umol/L after 72 hrs by MTT assay relative to control; type: cell-based
Pseudomonas aeruginosa [37] = assay: Binding affinity to Pseudomonas aeruginosa DNA by fluorescence spectroscopic analysis
[38] = Cytotoxicity against MEF assessed as inhibition of cell proliferation at 10^2 umol/L after 72 hrs by MTT assay relative to control; type: cell-based; details: mouse, MEF cells
[39] = Cytotoxicity against HEK293 cells assessed as inhibition of cell proliferation at 1 umol/L after 72 hrs by MTT assay relative to control; type: cell-based; details: human

## Cc1ncc([N+](=O)[O-])n1CC(O)CNC1CCN(c2c(F)cc3c(=O)c(C(=O)O)cn(C4CC4)c3c2Cl)C1 (stereo not given)
[1]
  inhibition at 72 h, 0.3 umol/L: 0%
[2]
  inhibition at 72 h, 3 µM: 4%
[3]
  inhibition at 72 h, 10 µM: 10.3%
[4]
  inhibition at 72 h, 0.3 umol/L: 0.3%
[5]
  pKa: 6.48
[6]
  inhibition at 72 h, 0.3 umol/L: 4.1%
Pichia norvegensis
  MIC: 8 µg/mL (≈ 14.6 µM)
[7]
  inhibition at 72 h, 0.1 umol/L: 0%
[8]
  inhibition at 72 h, 300 umol/L: 58.1%
Cyberlindnera jadinii
  MIC: 2 µg/mL (≈ 3.64 µM)
[9]
  inhibition at 72 h, 10 µM: 22.7%
[10]
  inhibition at 72 h, 0.03 umol/L: 0%
Pseudomonas aeruginosa [11]
  KSV: 7.02 L/mol
MEF
  IC50: 60 µg/mL (≈ 109 µM)
Micrococcus luteus
  MIC: 0.25 µg/mL (≈ 0.455 µM)
[12]
  inhibition at 72 h, 100 umol/L: 58.2%
[13]
  inhibition at 72 h, 0.01 umol/L: 0.1%
Staphylococcus aureus [14]
  MIC: 0.25 µg/mL (≈ 0.455 µM)
Salmonella enterica
  MIC: 0.5 µg/mL (≈ 0.911 µM)
Bacillus spizizenii
  MIC: 0.25 µg/mL (≈ 0.455 µM)
[15]
  inhibition at 72 h, 30 µM: 39.9%
Staphylococcus aureus [16]
  MIC: 0.5 µg/mL (≈ 0.911 µM)
[17]
  inhibition at 72 h, 0.03 umol/L: 0%
[18]
  inhibition at 72 h, 3 µM: 8.4%
Bacillus
  MIC: 0.25 µg/mL (≈ 0.455 µM)
[19]
  inhibition at 72 h, 30 µM: 25.7%
[20]
  inhibition at 72 h, 10 µM: 21.8%
[21]
  inhibition at 72 h, 100 umol/L: 35.8%
[22]
  inhibition at 72 h, 30 µM: 22.4%
Saccharomyces cerevisiae
  MIC: 8 µg/mL (≈ 14.6 µM)
[23]
  inhibition at 72 h, 0.03 umol/L: 1.5%
[24]
  inhibition at 72 h, 1 µM: 0.7%
[25]
  inhibition at 72 h, 0.01 umol/L: 0%
[26]
  inhibition at 72 h, 1 µM: 0%
Pseudomonas aeruginosa [27]
  Activity: Active
Pseudomonas aeruginosa [28]
  Activity: Active
Pseudomonas aeruginosa [29]
  MIC: 0.25 µg/mL (≈ 0.455 µM)
[30]
  inhibition at 72 h, 0.1 umol/L: 0.9%
Candida albicans
  MIC: 16 µg/mL (≈ 29.1 µM)
[31]
  inhibition at 72 h, 300 umol/L: 65.5%
[32]
  inhibition at 72 h, 300 umol/L: 57.9%
[33]
  inhibition at 72 h, 0.01 umol/L: 0%
HEK293
  IC50: 126 µg/mL (≈ 230 µM)
C2C12
  IC50: 57 µg/mL (≈ 104 µM)
Escherichia coli
  MIC: 2 µg/mL (≈ 3.64 µM)
Aspergillus flavus
  MIC: 4 µg/mL (≈ 7.29 µM)
[34]
  inhibition at 72 h, 3 µM: 13%
Pseudomonas aeruginosa [35]
  Activity: Active
[36]
  inhibition at 72 h, 0.1 umol/L: 0%
Pseudomonas aeruginosa [37]
  Activity: inactive
[38]
  inhibition at 72 h, 100 umol/L: 51.7%
[39]
  inhibition at 72 h, 1 µM: 5.3%

## Cc1nc(N2CCCC2)c([N+](=O)[O-])n1CC(O)CNC1CCN(c2c(F)cc3c(=O)c(C(=O)O)cn(C4CC4)c3c2Cl)C1 (stereo not given)
[5]
  pKa: 6.54
Pichia norvegensis
  MIC: 4 µg/mL (≈ 6.47 µM)
Cyberlindnera jadinii
  MIC: 1 µg/mL (≈ 1.62 µM)
Micrococcus luteus
  MIC: 4 µg/mL (≈ 6.47 µM)
Staphylococcus aureus [14]
  MIC: 1 µg/mL (≈ 1.62 µM)
Salmonella enterica
  MIC: 8 µg/mL (≈ 12.9 µM)
Bacillus spizizenii
  MIC: 1 µg/mL (≈ 1.62 µM)
Staphylococcus aureus [16]
  MIC: 1 µg/mL (≈ 1.62 µM)
Bacillus
  MIC: 0.5 µg/mL (≈ 0.809 µM)
Saccharomyces cerevisiae
  MIC: 4 µg/mL (≈ 6.47 µM)
Pseudomonas aeruginosa [29]
  MIC: 0.5 µg/mL (≈ 0.809 µM)
Candida albicans
  MIC: 2 µg/mL (≈ 3.24 µM)
Escherichia coli
  MIC: 8 µg/mL (≈ 12.9 µM)
Aspergillus flavus
  MIC: 2 µg/mL (≈ 3.24 µM)

## CCn1cc(C(=O)O)c(=O)c2cc(F)c(N3CCN(CC(O)Cn4c(C)nc(N5CCCCC5)c4[N+](=O)[O-])CC3)cc21 (stereo not given)
[5]
  pKa: 6.75
Pichia norvegensis
  MIC: 128 µg/mL (≈ 219 µM)
Cyberlindnera jadinii
  MIC: 32 µg/mL (≈ 54.6 µM)
Micrococcus luteus
  MIC: 128 µg/mL (≈ 219 µM)
Staphylococcus aureus [14]
  MIC: 64 µg/mL (≈ 109 µM)
Salmonella enterica
  MIC: 128 µg/mL (≈ 219 µM)
Bacillus spizizenii
  MIC: 128 µg/mL (≈ 219 µM)
Staphylococcus aureus [16]
  MIC: 64 µg/mL (≈ 109 µM)
Bacillus
  MIC: 128 µg/mL (≈ 219 µM)
Saccharomyces cerevisiae
  MIC: 32 µg/mL (≈ 54.6 µM)
Pseudomonas aeruginosa [29]
  MIC: 4 µg/mL (≈ 6.83 µM)
Candida albicans
  MIC: 32 µg/mL (≈ 54.6 µM)
Escherichia coli
  MIC: 256 µg/mL (≈ 437 µM)
Aspergillus flavus
  MIC: 32 µg/mL (≈ 54.6 µM)
